The values that follow come from ChEMBL document CHEMBL1806482, “Flavans from Iris tenuifolia and their effects on β-amyloid aggregation and neural stem cells proliferation in vitro” (Bioorg Med Chem Lett, 2011).

The source made the active and inactive calls. The rule behind the calls is not given here.

Test [1] in a line: Inhibition of amyloid beta (1 to 40) aggregation after 30 mins by thioflavin T fluorescence assay.
In a further test the test system is NSC. The test is described as follows: Induction of NSC proliferation assessed as ATP level. Format: functional, cell-based.

As for `O=C1CC(c2cccc(O)c2O)Oc2cc3c(c(O)c21)OCO3` (stereo not given), in test [1], the inhibition (in general, how much of the control response was suppressed) was determined as 61.7%. In addition, the result in the test on NSC was Active.

In test [1], `C[C@H]1COC2=C1C(=O)C(=O)c1c2ccc2c1CCCC2(C)C` displayed an inhibition of 43.7%.

In test [1], `COc1cc(OC)c2c(c1)O[C@H]1C[C@@H]2Oc2c(O)cccc21` registered an inhibition of 19.8%. In the test with NSC, the result was inactive.
